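Dose response: 5 concentrations. Exposure: 48 h. Format: 96-well plates. Endpoint: linear interpolation; highest concentration if not reached. GI50: concentration for 50% inhibition of growth. At the TGI there is no net growth.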
Columns and labels:
Assay in all cases: DTP human tumour cell line panel, 48 h
OVCAR-4 ovarian = tested on: OVCAR-4 ovarian
UO-31 renal = tested on: UO-31 renal
COLO 205 colon = tested on: COLO 205 colon
MDA-MB-231 breast = tested on: MDA-MB-231 breast
HCC-2998 colon = tested on: HCC-2998 colon
HCT-116 colon = tested on: HCT-116 colon
ACHN renal = tested on: ACHN renal
M14 melanoma = tested on: M14 melanoma
NCI/ADR-RES ovarian = tested on: NCI/ADR-RES ovarian
SR leukemia = tested on: SR leukemia

SMILES	GI50 (OVCAR-4 ovarian)	TGI (OVCAR-4 ovarian)	GI50 (UO-31 renal)	TGI (UO-31 renal)	GI50 (COLO 205 colon)	TGI (COLO 205 colon)	GI50 (MDA-MB-231 breast)	TGI (MDA-MB-231 breast)	GI50 (HCC-2998 colon)	TGI (HCC-2998 colon)	GI50 (HCT-116 colon)	TGI (HCT-116 colon)	GI50 (ACHN renal)	TGI (ACHN renal)	GI50 (M14 melanoma)	TGI (M14 melanoma)	GI50 (NCI/ADR-RES ovarian)	TGI (NCI/ADR-RES ovarian)	TGI (SR leukemia)	GI50 (SR leukemia)
Nc1c(C(=O)N/N=C/c2ccc(-c3ccc(Cl)cc3)o2)cnn1-c1ccnc2c(C(F)(F)F)cccc12	72.5 µM	> 100 µM	> 100 µM	> 100 µM	> 100 µM	> 100 µM	> 100 µM	> 100 µM	> 100 µM	> 100 µM	> 100 µM	> 100 µM	> 100 µM	> 100 µM	> 100 µM	> 100 µM	> 100 µM	> 100 µM	–	–
O=C1CSC(Cc2nc3ccccc3[nH]2)=N1	–	41.6 µM	–	35 µM	–	50 µM	–	–	–	36.3 µM	–	27.6 µM	–	9.79 µM	–	33.4 µM	–	–	25.6 µM	–
COc1ccccc1NC(=O)C1=C(C)NC(C)=C(C(=O)Nc2ccccc2OC)C1c1ccc([N+](=O)[O-])cc1	–	> 100 µM	–	–	–	> 100 µM	–	–	–	–	–	> 100 µM	–	> 100 µM	–	> 100 µM	–	–	> 100 µM	–
O=S(O)CCCCSSCc1ccccc1CSSCCCCS(=O)O	–	18.3 µM	–	74.4 µM	–	31.2 µM	–	–	–	> 100 µM	–	–	–	74 µM	–	26.7 µM	–	–	–	–
CCCCCCCCCc1cc(=O)c2c(O)cccc2o1	–	> 100 µM	–	> 100 µM	–	> 100 µM	–	–	–	> 100 µM	–	> 100 µM	–	> 100 µM	–	> 100 µM	–	–	> 100 µM	–
COc1ccccc1/C=C/c1cnccn1	–	> 10 µM	–	> 10 µM	–	> 10 µM	–	> 10 µM	–	> 10 µM	–	> 10 µM	–	> 10 µM	–	> 10 µM	–	> 10 µM	–	–
CC(=O)Oc1ccccc1C(=O)N=C1[Se]CCN1C(=O)c1ccccc1OC(C)=O	1.46 µM	7.24 µM	0.424 µM	1.53 µM	1.84 µM	4.07 µM	0.472 µM	3.06 µM	2.15 µM	5.79 µM	0.32 µM	1.15 µM	1.4 µM	2.86 µM	0.523 µM	2.2 µM	–	–	> 100 µM	1.51 µM
Cc1cn2c(/C=C3/C(=O)Nc4ccccc43)c(-c3ccc(Cl)cc3)nc2s1	–	–	35.9 µM	> 50 µM	10.4 µM	22.2 µM	2.34 µM	9.45 µM	–	–	–	–	2.48 µM	8.52 µM	8.39 µM	15.2 µM	–	–	39.8 µM	11.5 µM
CC(C)c1ccccc1S(=O)c1ccccc1C(C)(C)O (configuration not stated)	–	> 100 µM	–	–	–	> 100 µM	–	> 100 µM	–	–	–	> 100 µM	–	> 100 µM	–	> 100 µM	–	> 100 µM	> 100 µM	–
O=C(CCC/C(CC(=O)c1ccc(Br)cc1)=N\O)Nc1ccccc1	–	> 100 µM	–	> 100 µM	–	> 100 µM	–	–	–	> 100 µM	–	> 100 µM	–	> 100 µM	–	> 100 µM	–	–	–	–
O=C(Nc1ccc([N+](=O)[O-])cc1)C1C(=O)C(=O)N(c2ccc([N+](=O)[O-])cc2)C1=O (configuration not stated)	–	–	–	> 100 µM	–	> 100 µM	–	–	–	> 100 µM	–	> 100 µM	–	> 100 µM	–	> 100 µM	–	–	> 100 µM	–
CCOC(=O)C1N(S(=O)(=O)c2ccc(C)cc2)CCC12C(c1ccc(OC)cc1)NC1CCCCC12 (configuration not stated)	–	> 100 µM	–	> 100 µM	–	> 100 µM	–	–	–	> 100 µM	–	> 100 µM	–	> 100 µM	–	> 100 µM	–	–	–	–
CCOC(=O)CCc1c(C)c2c(OC(C)=O)cc(OC(C)=O)cc2oc1=O	–	> 100 µM	–	> 100 µM	–	> 100 µM	–	–	–	> 100 µM	–	> 100 µM	–	> 100 µM	–	> 100 µM	–	–	–	–
COc1cc2c(cc1OC)C13CCN4CC5=CCOC6CC(=O)N2C1C6C5CC43O (configuration not stated)	–	> 100 µM	–	> 100 µM	–	> 100 µM	–	> 100 µM	–	> 100 µM	–	> 100 µM	–	> 100 µM	–	> 100 µM	–	> 100 µM	–	–
NC1CCCC[C@H]1N.N[C@@H]1CCCC[C@@H]1N.O=C(P(=O)([O-])[O-])P(=O)([O-])[O-].[Pt+4].[Pt+4]	> 100 µM	> 100 µM	> 100 µM	> 100 µM	> 100 µM	> 100 µM	–	–	> 100 µM	> 100 µM	83.8 µM	> 100 µM	82.2 µM	> 100 µM	> 100 µM	> 100 µM	–	–	–	–
NC(N)=N/N=C/c1cc(Cl)cc(Cl)c1O	–	> 100 µM	–	> 100 µM	–	> 100 µM	–	> 100 µM	–	32 µM	–	> 100 µM	–	> 100 µM	–	> 100 µM	–	> 100 µM	–	–
CCOC(=O)[C@H](CCCNC(=O)OC(C)(C)C)NCc1ccc(OC)c(OC)c1	–	> 100 µM	–	> 100 µM	–	> 100 µM	–	–	–	> 100 µM	–	> 100 µM	–	> 100 µM	–	> 100 µM	–	–	> 100 µM	–
Cc1cccc(NC(=O)/C=C/c2ccc(N(CCC#N)CCC#N)cc2C)c1	–	> 100 µM	–	> 100 µM	–	> 100 µM	–	–	–	> 100 µM	–	> 100 µM	–	> 100 µM	–	> 100 µM	–	–	–	–
O=C(CSc1nnc(-c2ccccc2NC(=O)C(F)(F)F)c(=O)[nH]1)NC(=O)Nc1ccccc1	–	–	–	> 100 µM	–	> 100 µM	–	–	–	> 100 µM	–	> 100 µM	–	–	–	> 100 µM	–	–	> 100 µM	–
CCOC(=O)c1[nH]c(COC(C)=O)c(CCCOC(C)=O)c1CCCOC(C)=O	–	> 100 µM	–	–	–	> 100 µM	–	–	–	> 100 µM	–	> 100 µM	–	> 100 µM	–	–	–	–	> 100 µM	–
O=C(CN1CCCCC1)N1CCc2c([nH]c3ccccc23)C1c1cccnc1 (configuration not stated)	–	> 100 µM	–	> 100 µM	–	–	–	–	–	> 100 µM	–	> 100 µM	–	> 100 µM	–	> 100 µM	–	–	–	–
OCCCCC#Cc1ccccc1C#Cc1cccc(O)c1	16.1 µM	32.1 µM	15.9 µM	32.5 µM	19.7 µM	35.6 µM	12.8 µM	26.7 µM	19.1 µM	35.5 µM	15.5 µM	30 µM	19.1 µM	41.6 µM	17.4 µM	35.1 µM	20 µM	47 µM	–	–
O=C(O)Cc1c(O)ccc2ccccc12	–	> 100 µM	–	–	–	> 100 µM	–	> 100 µM	–	–	–	> 100 µM	–	> 100 µM	–	> 100 µM	–	> 100 µM	> 100 µM	–
